Patent US20220288077A1, “PROSTATITIS TREATMENT” (NATIONAL INSTITUTE OF BIOLOGICAL SCIENCES, priority 2019, published 2022)

Key:
[1] = tested on: carrageenan-induced rat prostatitis model; assay: Carrageenan-induced rat prostatitis model: prostate weight assessment (prostate index); format: in vivo; conditions: for prostate index (ratio of prostate gland wet weight/body weight): seven days after carrageenan, model group 2.15±0.30 mg/g
Text: (§1) Adult male Sprague-Dawley rats (250-350 g body weight) were used for the experiments. All animals were acclimated for 1 week before any experimental procedures.
(§2) All the SD rats were randomly divided into different groups (n=8-10): control group, model group, and compounds-treated groups. For injection of carrageenan or saline, rats were anesthetized with 4% chloral hydrate and were fixed in a supine position. Then, the lower abdomen above the penis of rats was shaved and the skin in this area sterilized using 3 applications of 75% medical alcohol. A small midline incision was made in the sterile area, then the bladder and the prostate carefully exposed. With a 30-gauge needle, 50 ul sterile suspension of 3% carrageenan (Sigma, MO, USA) or saline (sham group) was injected into both right and left ventral lobes of the prostate gland. Different doses of RIPA-56 (12.5 mg/kg, 25 mg/kg, IP) or Finasteride (5 mg/kg, PO) were administrated to rats before (−17 min) and after (once every 12 h) carrageenan injection. While an equal amount of solvents were intraperitoneally and orally injected to control rats.
Seven days after carrageenan injection, rats were sacrificed and the prostates were harvested. Ventral and dorsolateral lobes of prostate glands were removed by cutting the ducts at the urethral connection and weighed immediately after removal. The prostate index (ratio of prostate gland wet weight/body weight) was calculated.

[2] = tested on: aged mice; conditions: seminal vesicles, seminiferous tubules, sperm production, reproductive capacity; cited from earlier work
[3] = tested on: TNFα; assay: Carrageenan-induced rat prostatitis model: TNFα in prostate homogenate (ELISA); format: in vivo; conditions: 25 mg/kg intraperitoneal B.I.D; per mg prostate homogenate protein; model 3.04±2.28, sham 0.52±0.26
Text: as §1
as §2, with “Different doses of RIPA-56 (12.5 mg/kg, 25 mg/kg, IP) or Finasteride (5 mg/kg, PO) were administrated to rats before (−17 min) and after (once every 12 h) carrageenan injection. While an equal amount of solvents were intraperitoneally and orally injected to control rats.” left out
Part of rat prostate were weighed, mixed with cell lysis buffer (500 μl buffer per 100 mg tissue) and homogenized using FastPrep-24 homogenizer (MP Biomedicals). […] The supernatant was collected, and the total protein concentration was measured with the Bradford protein assay method. […] The level of cytokines was determined using rat TNFα, IL-1β and IL-6 ELISA kit (Biolegend or ProteinTech), and normalized to prostate protein concentration.

[4] = tested on: carrageenan-induced rat prostatitis model; assay: Carrageenan-induced rat prostatitis model: histological analysis of prostate (H & E); format: in vivo; conditions: FIG. 1 C
Text: as §1
as §2, with “While an equal amount of solvents were intraperitoneally and orally injected to control rats.” left out
For histological analysis, one part of the prostate was fixed in 10% neutral buffered formalin for 24 h, dehydrated in ethanol, cleared in xylene, and embedded in paraffin blocks. […] Each slide was evaluated randomly in 3 different areas by an independent investigator unaware of the animal grouping using a microscope.

[5] = tested on: rat EAP model; conditions: cited from earlier work
[6] = tested on: carrageenan-induced male rat prostate disease model; assay: Carrageenan-induced male rat prostate disease model: representative RIP1, RIP3 and MLKL inhibitors; format: in vivo; conditions: list after the methods of the example; protocols based on RIPA-56
Protocol: Experimental protocols for the compounds of Table 1 were based on those used for RIPA-56. Each inhibitor was intraperitoneally or orally administrated to rat before carrageenan treatment, at the dose of 20 mg/kg to 100 mg/kg.
Each inhibitor was intraperitoneally or orally administrated to rat before carrageenan treatment, at the dose of 20 mg/kg to 100 mg/kg.
as §2, with “Then, the lower abdomen above the penis of rats was shaved and the skin in this area sterilized using 3 applications of 75% medical alcohol.” left out, “Different doses of RIPA-56 (12.5 mg/kg, 25 mg/kg, IP) or Finasteride (5 mg/kg, PO) were administrated to rats before (−17 min) and after (once every 12 h) carrageenan injection.” left out

## CC(C)(C)NC(=O)[C@H]1CC[C@H]2[C@@H]3CC[C@H]4NC(=O)C=C[C@]4(C)[C@H]3CC[C@]12C [finasteride]
[1]; 5 mg/kg orally B.I.D
  decrease of the prostate index of carrageenan-treated rats: 23%

## CCC(C)(C)C(=O)N(O)Cc1ccccc1 [RIPA-56]
[2]
  protection of aged mice from reproductive system aging: can protect aged mice from seminal vesicles enlargement
[1]; 12.5 mg/kg intraperitoneal B.I.D
  prostate index (ratio of prostate gland wet weight/body weight): 1.99 ± 0.41 mg/g
[1]; 25 mg/kg intraperitoneal B.I.D
  prostate index (ratio of prostate gland wet weight/body weight): 1.82 ± 0.22 mg/g
[1]; 12.5 and 25 mg/kg intraperitoneal B.I.D
  inhibition to the prostate enlargement and edema: dose-dependent inhibition
[3]
  TNFα level in the prostate homogenate: 1.02 ± 0.37 pg/mg
[4]; RIPA-56 treated rats vs disease-model group
  inflammatory response in the prostate (histopathology): less severe than the disease-model group
[4]; RIPA-56 treated rats
  inflammatory cells in the interstitial space (histopathology): Only few inflammatory cells

## CCOc1ccccc1OCCN[C@H](C)Cc1ccc(OC)c(S(N)(=O)=O)c1 [tamsulosin]
[5]
  anti-inflammatory efficacy: partial anti-inflammatory efficacy

## CN(c1ccc(NC(=O)Nc2ccc(OC(F)(F)F)cc2)cc1)c1ccnc(Nc2cccc(S(N)(=O)=O)c2)n1 [Compound 1, 3-((4-(methyl(4-(3-(4-(trifluoromethoxy)phenyl)ureido)phenyl)amino)pyrimidin-2-yl)amino)benzenesulfonamide]
[6]
  listed under heading Active MLKL Inhibitors: Active

## C[C@H](NC(=O)c1snnc1C1CC1)c1c(F)cccc1Cl [(S)—N-(1-(2-chloro-6-fluorophenyl)ethyl)-4-cyclopropyl-1,2,3-thiadiazole-5-carboxamide]
[6]
  listed under heading Active RIP1 Inhibitors: Active

## CCC(C)(C)C(=O)N(O)Cc1ccc(F)c(F)c1 [N-(3,4-Difluorobenzyl)-N-hydroxy-2,2-dimethylbutanamide]
[6]
  listed under heading Active RIP1 Inhibitors: Active

## O=C(c1ccccc1)N1N=CC[C@H]1c1ccccc1 [(S)-phenyl(5-phenyl-4,5-dihydro-1H-pyrazol-1-yl)methanone]
[6]
  listed under heading Active RIP1 Inhibitors: Active

## CC(C)(C)C(=O)N1N=CC[C@H]1c1ccccc1 [GSK963, (S)-2,2-dimethyl-1-(5-phenyl-4,5-dihydro-1H-pyrazol-1-yl)propan-1-on]
[6]
  listed under heading Active RIP1 Inhibitors: Active
